Experiments:
human TGR5 receptor = target: T1, human TGR5 receptor (Homo sapiens, UniProt Q8TDU6); assay: Human TGR5 cAMP production assay (hTGR5-CHO cells, DiscoveRx cAMP XS+ kit); type: cell-based; details: luminescent cAMP assay, read-out: Human TGR5 Lum. cAMP Activity (EC50)
T1 construct: host or cells: CHO-K1 (hTGR5-CHO)
T1 sequence (Q8TDU6 1-330): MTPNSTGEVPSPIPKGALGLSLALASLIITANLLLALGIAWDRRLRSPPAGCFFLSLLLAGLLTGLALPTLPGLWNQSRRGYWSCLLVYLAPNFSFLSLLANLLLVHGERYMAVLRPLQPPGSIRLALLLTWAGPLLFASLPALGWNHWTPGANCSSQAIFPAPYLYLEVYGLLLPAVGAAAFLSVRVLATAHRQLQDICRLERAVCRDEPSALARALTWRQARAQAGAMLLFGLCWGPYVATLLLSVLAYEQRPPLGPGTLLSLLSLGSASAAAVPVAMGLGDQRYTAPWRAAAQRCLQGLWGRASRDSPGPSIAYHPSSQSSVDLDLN
In short: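 CHO-K1 cells stably expressing hTGR5, in PBS with IBMX and cAMP antibody, treated with half-log compound dilutions for 1 h at room temperature. cAMP measured by enzyme-fragment complementation luminescence after overnight detection; EC50 values reported.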

mouse TGR5 receptor = target: T2, mouse TGR5 receptor (Mus musculus, UniProt Q80SS6); assay: Mouse TGR5 luminescent cAMP production assay (HEK293-EBNA cells, DiscoveRx cAMP XS+ kit); type: cell-based; details: HEK293-EBNA cells overexpressing mouse TGR5, luminescent cAMP assay; read-out: Mouse TGR5 Lum. cAMP Activity (EC50)
T2 construct: host or cells: HEK293-EBNA (293 c18, ATCC CRL10852)
T2 sequence (Q80SS6 1-329): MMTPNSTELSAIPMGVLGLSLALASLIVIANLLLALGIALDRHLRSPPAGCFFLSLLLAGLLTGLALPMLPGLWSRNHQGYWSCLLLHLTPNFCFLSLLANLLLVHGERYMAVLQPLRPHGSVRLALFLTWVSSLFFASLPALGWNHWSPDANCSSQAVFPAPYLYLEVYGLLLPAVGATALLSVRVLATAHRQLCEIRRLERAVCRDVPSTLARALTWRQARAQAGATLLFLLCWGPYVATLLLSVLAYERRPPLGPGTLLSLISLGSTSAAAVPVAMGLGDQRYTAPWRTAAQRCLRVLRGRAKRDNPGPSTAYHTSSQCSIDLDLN
In short: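 HEK293-EBNA cells stably expressing mouse TGR5, resuspended in serum-free DMEM with 500 μM IBMX, were premixed 20 min with cAMP antibody, then exposed to half-log compound dilutions for 1 h at room temperature. cAMP was read by luminescent enzyme-fragment complementation (cAMP XS+) after overnight incubation; EC50 derived.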

Mouse STC-1 cells = assay: STC-1 GLP-1 assay (GLP-1 secretion); type: cell-based; details: Mouse STC-1 cells, GLP-1 secretion, 2 h; read-out: Mouse STC-1 HTRF GLP-1 Activity (EC50)
Protocol: Compounds of the present invention were evaluated for their ability to induce GLP-1 production in mouse intestinal neuroendocrine tumor cells.
Mouse STC-1 cells were cultured and maintained in high glucose DMEM (Sigma #5796) supplemented with 15% horse serum, 5% Fetal Bovine Serum (FBS), 1%° penicillin/streptomycin, and 2 mM L-alanine L-glutamine (GlutaMax). Two days prior to analysis of GLP-1 secretion cells were harvested using Accutase (Sigma), spun down then resuspended in high glucose DMEM media containing 2 mM L-alanine L-glutamine (GlutaMax), 10% charcoal-dextran stripped FBS, and 50 μg/mL Gentamicin, at a density of 100,000° cells/mL. 100 μL of cell suspension was added to each well of a 96-well Poly-D-Lysine coated culture plate (Sigma; cat #2382493) and was incubated at 37° C. with 5% CO2.
Compounds were initially diluted in 100% DMSO (12-point serial dilution by half logs) in a 96-well plate and then were further diluted 1:500 in Hanks' Balanced Salt Solution (HBSS) containing protease inhibitor cocktail, DPP-IV inhibitor, and 0.1% fatty acid free bovine serum albumin. On the day of the experiment cells were washed once with HBSS. After wash, 100 μL of test compound was added to each well. The plate was incubated at 37° C. with 5% CO2 for 2° h. Supernatants were collected and GLP-1 secretion was measured using the Cisbio™ Active GLP-1 HTRF Assay Kit (CisBio). Briefly, Anti-GLP-1-d2 conjugate and Anti-GLP-1 Terbium Cryptate conjugate stock solutions were prepared as per kit instructions. The two solutions were pre-mixed and 10 μL were transferred to a 384-well low volume plate (Greiner; cat #784075). 10 μL of collected supernatants were added to wells already containing the conjugate solution. The plate was covered and incubated at room temperature overnight. The plate was read on an Envision™ plate reader (PerkinElmer).
In Table 53, EC50 values were obtained from the STC-1 GLP-1 production assay for compounds of the present invention are summarized.

[1] = 6-week DEXA body composition analysis in DIO mice; type: in vivo, mouse; details: 6 weeks BID dosing
Source text: In the next series of studies (Examples 93-99), Male DIO mice were received at 12 weeks of age (from Taconic), and were single-housed at the testing facility and acclimated for at least 2 weeks. The mice were provided a high fat diet [Research Diet D12492 (60% Fat kcal)] while in the testing facility. Before the study initiation, the animals were randomized into 5 experimental groups by body weight. The vehicle group contained only 0.5% carboxymethylcellulose (medium viscosity)+0.25% Tween-80. The second group contained 10 mg/kg of the DPP-IV inhibitor Sitagliptin while the third group contained 30 mg/kg Compound 268. The fourth group contained the combination of 10 mg/kg Sitagliptin and 30 mg/kg Compound 268. The fifth group was the positive control for weight loss, Rimonabant. All mice were dosed BID at approximately 6:00 am and again at approximately 4:00 pm. The positive control rimonabant was administered at a dose of 10 mg/kg in the afternoon and the morning dosing was vehicle (no compound).
6-Week Dexa Analysis after Multiple Weeks of Dosing Compounds
Compounds of the present invention were dosed for multiple weeks and the mice were analyzed to determine whether weight loss seen in Example 93 was due to a loss in fat or lean mass.
In this example, the protocol from Example 93 was utilized. The day of experiment, the mice were anesthetized using 2.5% avertin [tert-amyl alcohol (Aldrich #15,256-3) and 2,2,2-tribromoethanol (Aldrich # T4, 840-2)]. Their body composition was assessed using the PIXImus2 X-ray unit (GE Lunar Corporation, Madison, Wis.) connected to a computer equipped with LUNAR PIXImus2 software. The head region of each mouse was excluded from the analysis. The following measurements were automatically measured or calculated by the PIXImus2 software: bone mineral density (BMD), bone mineral content (BMC), bone area (B Area), tissue area (T Area), percent fat, and total tissue mass (TTM). Fat mass, the percentage of lean mass, and lean mass, were calculated manually as follows: % Lean=100−% Fat Lean Mass=TTM×(100−% Fat) Fat Mass=TTM×% Fat

[2] = Absorption vs. first pass metabolism: Cmax in ICR mice with and without 1-aminobenzotriazole (ABT) pre-treatment; type: in vivo, mouse; details: 10 mg/kg p.o., ABT 150 mg/kg 2 h before
Protocol: Absorption Vs. First Pass Metabolism
In this study, we further examined the absorption as compared to first pass metabolism of the compounds of the present invention. ICR mice (Hilltop) were pre-treated with 1-aminobenzotriazole (ABT), a nonselective inhibitor of cytochrome P450 enzymes, to inhibit Cyp450-mediated degradation of the compounds in liver.
ABT was administered at 150 mg/kg in 5 mL/kg of 0.04% ethanol in 0.5% methyl cellulose (w/v) by oral gavage, 2 hours prior to test compound administration. The compounds (i.e., Compounds 56, 268, 249, 61, 126, and 199) were administered by oral gavage at 10 mg/kg in 10 mL/kg of 20% PEG400/80% (0.5% (w/v) CMC containing 0.25% (v/v) Tween 80) (v/v), 2 hours after the ABT treatment. Blood was collected via orbital bleeding at predose, 0.25, 0.5, 1, 2, and 4 hours post-dose and the quantification of compound levels in plasma was accomplished by means of LC-MS/MS analysis as described in Example 81. Reference compound “Propranolol” that is known to be metabolized by Cyp450 was used as a positive control.
FIG. 15 depicts the Cmax (nM) of the compounds of the present invention with and without ABT pre-treatment.

Row | Structure (SMILES) | EC50 (human TGR5 receptor) [nM] | EC50 (mouse TGR5 receptor) [nM] | EC50 (Mouse STC-1 cells) [nM] | fat mass versus lean mass (DEXA) [1] | loss in weight / total tissue mass (DEXA) [1] | Cmax with versus without ABT pre-treatment [2]
1 | CS(=O)(=O)c1ccc(-c2cc(N3CCC[C@H]3C(=O)NCCc3ccc(C#N)cc3)nc(C(F)(F)F)n2)cc1 [Compound 152, (S)-N-(4-cyanophenethyl)-1-(6-(4-(methylsulfonyl)phenyl)-2-(trifluoromethyl)pyrimidin-4-yl)pyrrolidine-2-carboxamide] | 100 to 999 | < 100 | 100 to 999 | – | – | –
2 | N[C@@H](CC(=O)N1CCn2c(nnc2C(F)(F)F)C1)Cc1cc(F)c(F)cc1F [sitagliptin, Sitagliptin, reference compound] | – | – | – | due to a loss in the Fat Mass | about the same loss in weight | –
3 | CC(C)NCC(O)COc1cccc2ccccc12 (stereo not drawn) [propranolol, Propranolol] | – | – | – | – | – | significantly higher in ABT pre-treated mice
4 | CN(C)CC1CCN(c2cc(N3CCC[C@H]3C(=O)NCCc3ccc(C#N)cc3)nc(C(F)(F)F)n2)CC1 [Compound 19] | 100 to 999 | < 100 | 1000 to 30000 | – | – | –
5 | O=C(NCCc1ccc(C(F)(F)F)cc1)[C@@H]1CCN1c1cc(N2CCC(CO)CC2)nc(C(F)(F)F)n1 [Compound 220, (S)-1-(6-(4-(hydroxymethyl)piperidin-1-yl)-2-(trifluoromethyl)pyrimidin-4-yl)-N-(4-(trifluoromethyl)-phenethyl)azetidine-2-carboxamide] | < 100 | < 100 | < 100 | – | – | –
6 | O=C(NCCc1ccc(C(F)(F)F)cc1)[C@@H]1CCCN1c1cc(N2CCC(CO)CC2)nc(C(F)(F)F)n1 [Compound 2, (S)-1-(6-(4-(hydroxymethyl)piperidin-1-yl)-2-(trifluoromethyl)pyrimidin-4-yl)-N-(4-(trifluoromethyl)-phenethyl)pyrrolidine-2-carboxamide] | < 100 | < 100 | 100 to 999 | – | – | –
7 | O=C(NCCc1ccc(C(F)(F)F)cc1)[C@@H]1CCCN1c1cc(OC2CCOCC2)nc(C(F)(F)F)n1 [Compound 40, (S)-1-(6-((tetrahydro-2H-pyran-4-yl)oxy)-2-(trifluoromethyl)pyrimidin-4-yl)-N-(4-(trifluoromethyl)phenethyl)pyrrolidine-2-carboxamide] | < 100 | < 100 | 100 to 999 | – | – | –
8 | N#Cc1ccc(CCNC(=O)[C@@H]2CCCN(c3cc(N4CCC(CCO)CC4)nc(C(F)(F)F)n3)C2)cc1 [Compound 309, (R)-N-(4-cyanophenethyl)-1-(6-(4-(2-hydroxyethyl)piperidin-1-yl)-2-(trifluoromethyl)pyrimidin-4-yl)piperidine-3-carboxamide] | < 100 | < 100 | 100 to 999 | – | – | –

Further lines, with some results ahead:

Row | EC50 (human TGR5 receptor) [nM] | EC50 (mouse TGR5 receptor) [nM] | EC50 (Mouse STC-1 cells) [nM] | Structure (SMILES) | fat mass versus lean mass (DEXA) [1] | loss in weight / total tissue mass (DEXA) [1] | Cmax with versus without ABT pre-treatment [2]
9 | < 100 | < 100 | 100 to 999 | O=C(NCCc1ccc(C(F)(F)F)cc1)[C@@H]1CCCN(c2cc(N3CCC(CO)CC3)nc(C(F)(F)F)n2)C1 [Compound 329, (R)-1-(6-(4-(hydroxymethyl)piperidin-1-yl)-2-(trifluoromethyl)pyrimidin-4-yl)-N-(4-(trifluoromethyl)-phenethyl)piperidine-3-carboxamide] | – | – | –
10 | < 100 | < 100 | 1000 to 30000 | N#Cc1ccc(CCNC(=O)[C@@H]2CCCN2c2cc(-c3ccc(CO)cc3)nc(C(F)(F)F)n2)cc1 [Compound 146, (S)-N-(4-cyanophenethyl)-1-(6-(4-(hydroxymethyl)phenyl)-2-(trifluoromethyl)pyrimidin-4-yl)pyrrolidine-2-carboxamide] | – | – | –
11 | < 100 | 100 to 999 | 1000 to 30000 | N#Cc1ccc(CCNC(=O)[C@@H]2CCCN2c2cc(N3CCC(CN)CC3)nc(C(F)(F)F)n2)cc1 [Compound 47, (S)-1-(6-(4-(aminomethyl)piperidin-1-yl)-2-(trifluoromethyl)pyrimidin-4-yl)-N-(4-cyanophenethyl)pyrrolidine-2-carboxamide] | – | – | –
12 | < 100 | < 100 | 100 to 999 | N#Cc1ccc(CCNC(=O)[C@@H]2CCCN2c2cc(OC3CCOCC3)nc(C(F)(F)F)n2)cc1 [Compound 41, (S)-N-(4-cyanophenethyl)-1-(6-((tetrahydro-2H-pyran-4-yl)oxy)-2-(trifluoromethyl)pyrimidin-4-yl)pyrrolidine-2-carboxamide] | – | – | –

— patent US10654834B2 (Venenum Biodesign, LLC, priority 2016, dated 2020)
